From US9888679B2, “Protection of progenitor cells and regulation of their differentiation” (Proteobioactives Pty Ltd, priority 2007, dated 2018)

Assays:
human progenitor cells = test: IL-4/IFN-gamma induced apoptosis, Annexin V staining; assay type: cell-based
Experimental: FIG. 6. The Effects of Pentosan Polysulfate (PPS) on Human progenitor cells treated with apoptotic agents. Human progenitor cells were plated in serum-free media supplemented with PPS at the indicated concentrations. Progenitor cell apoptosis was induced by the addition of a combination of 30 ng/ml IL-4 plus 30,000 U/ml IFN-gamma. Following 5 days culture, cells were harvested by trypsinisation and viabilities assessed by Annexin V staining.
Human progenitor cells were plated in serum-free media supplemented with PPS at concentrations of 0, 1, 2, 5 and 10 micrograms/mL. Progenitor cell apoptosis was induced by the addition of a combination of 30 ng/ml IL-4 30,000 U/ml IFN gamma. Following 5 days culture, cells were harvested by trypsinisation and viabilities assessed by Annexin V staining as previously described (Kortesidis A, A Zannettino, S Isenmann, S Shi, T Lapidot and S Gronthos. (2005). Stromal-derived factor-1 promotes the growth, survival, and development of human bone marrow stromal stem cells. Blood 105:3793-3801).
The experiment was undertaken in a 96 well plate containing 50,000 progenitor cells/well.

[1] = system: murine ATDC5 progenitor cells; test: Proteoglycan biosynthesis (35S-GAG) in monolayer cultures, maintenance or differentiation media; assay type: cell-based
Excerpt: (§1) FIG. 21. A bar graph of the concentration dependent effects of rhNC4 (batch PBA-1202P) expressed by K. lactis, in the absence (maintenance media, MM) and presence of insulin (10 micrograms/mL) (differentiation media, DM), on the biosynthesis of Proteoglycans (PGs) as determined by the incorporation of radioactively labelled sulfate into the sulfated glycosaminoglycans (^35S-GAG) of PGs after 3 day culture with Murine ATDC5 progenitor cells. The data was expressed as % change relative to control cultures that contained no rhNC4. P<0.05 was statistically significant relative to control cultures.
FIG. 24. A bar graph of the concentration dependent effects of combinations of rhNC4 (batch PBA-1202P) and Pentosan Polysulfate (PPS) on the biosynthesis of 35S-PGs by monolayer cultures of Murine ATDC5 progenitor cells. Data is expressed relative to control (maintenance media, MM) which was taken as 100%.
as §1, with “31.” for “21.”
FIG. 32. A bar graph of the concentration dependent effects of Pentosan Polysulfate (PPS), in the presence of insulin (10 micrograms/mL), on the biosynthesis of Proteoglycans PGs) as determined by the incorporation of radioactively labelled sulfate into the sulfated glycosaminoglycans (^35S-GAG) of PGs after 3 day culture with Murine ATDC5 progenitor cells. The data was expressed as ^35S-GAG radioactivity as counts per minute (CPM) and decays per minute (DPM) relative to control cultures that contained no PPS. P<0.05 was statistically significant relative to control cultures.
Murine Progenitor cells (cell lines C3H10T1/2 or ATDC5) purchased from RIKEN Cell Bank (Tsukuba, Japan) or human immunoselected Stro-1+ Progenitor cells (Mesoblast Ltd, Melbourne, Australia) were seeded into 50 mL plastic culture flasks containing 1:1 high glucose DMEM/Ham's F-12 medium (Invitrogen) supplemented with 10% FBS (Sigma) and incubated at 37° C., in 5% CO2. […] The experiments were generally terminated after 48 hours incubation when proteoglycan biosynthesis was determined by measuring the incorporation of ^35SO4 into the glycosaminoglycans (^35S-GAGs) as described below.
The data was expressed as % change relative to control cultures that contained no rhNC4. […]

Smad 2 = test: RT-PCR gene expression, 2 day monolayer ATDC5 cultures; assay type: cell-based, murine; conditions: ATDC5 cells; concentrations shown to stimulate PG synthesis; FIG. 26
Excerpt: (§2) FIG. 26. RT-PCR detection of gene expression of Runx2 and the transduction proteins, Smad 2 and Smad 4 and the housekeeping gene NADPH expressed by Murine ATDC5 progenitor cells cultured in the presence and absence of rhNC4 (Batch PBA-1209P) and PPS for 2 days in monolayer cultures.
(§3) Total RNA was isolated from Progenitor cells according to the manufacturer's instructions for the Aurum total RNA mini kit (Bio-Rad, USA). The RNA was reverse transcribed with RevertAid™ H Minus First Stand cDNA Synthesis Kit (Fermentas, USA). PCR products were transferred to an agarose gel, and visualized by ethidium bromide staining, and integrated densities calculated using Scion image analysis software, normalized to the house-keeping gene Glyceraldehydes-3-phosphate dehydrogenase (GAPDH) to permit semi-quantitative comparisons in mRNA levels. (L. Marchuk, P. Sciore, C. Reno, C. B. Frank, D. A. Hart. Postmortem stability of total RNA isolated from rabbit ligament, tendon and cartilage, Biochim Biophys Acta. 1379 (1998) 171-177. R. Boykiw, P. Sciore, C. Reno, L. Marchuk, C. B. Frank, D. A. Hart. Altered levels of extracellular matrix molecule mRNA in healing rabbit ligaments, Matrix Biol. 17 (1998) 371-378.)

Smad 4 = test: as above; assay type: cell-based, murine; conditions: ATDC5 cells; concentrations shown to stimulate PG synthesis; FIG. 26
Excerpt: as §2, §3

For pentosan polysulfate [PPS], the “PPS concentration with best results on apoptosis” value (human progenitor cells; FIG. 6) was 10 µg/mL, the “reduction in IFN-gamma/IL-4-induced apoptosis (Annexin V positive cells)” value (human progenitor cells; PPS in excess 1 ug/ml, 5 days culture, FIG. 6) was “two-fold reduction” and the cell apoptosis (human progenitor cells; all concentrations of PPS (1, 2, 5, 10 micrograms/mL)) was “reduced”. The reduction of apoptosis (human progenitor cells; concentrations above 1 microgram/mL, incubated with IL-4 and IFN-gamma, FIG. 6) was “about 50%”, the PG synthesis ([1]; PPS in the presence of insulin (10 micrograms/mL), 3 day culture, FIG. 32) was “concentration dependent stimulation of PG synthesis” and the “biosynthesis of 35S-PGs” value ([1]; PPS, monolayer, FIG. 24) was “effect of PPS increases with concentration”. For the same substance, the “expression of Smad 2” value (Smad 2) was “up regulation” and the “expression of Smad 4” value (Smad 4) was “up regulation”.
